ChEMBL document CHEMBL1201862, “PubChem BioAssay data set” (2004)
“And” between values parts separate entries of the source, which are not always exact repeats. Equal values may be shown once.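 These data come from cells grown in 96-well plates and exposed to compound for 48 hours at five concentrations. GI50: concentration for 50% inhibition of growth.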 The source made the active and inactive calls. No stated cut-off is given here; in the data, active = GI50 up to about 1.1 µM and inactive = higher.

Tests used:
Assay in all cases: DTP human tumour cell line panel, 48 h
[1] = test system: 786-0
[2] = test system: ACHN
[3] = test system: CCRF-CEM
[4] = test system: DU-145
[5] = test system: HL-60
[6] = test system: IGROV-1
[7] = test system: LOX IMVI
[8] = test system: M14
[9] = test system: MCF7
[10] = test system: MDA-N
[11] = test system: Malme-3M
[12] = test system: NCI-H226
[13] = test system: NCI-H522
[14] = test system: NCI/ADR-RES
[15] = test system: SF-268
[16] = test system: SF-295
[17] = test system: SK-MEL-5
[18] = test system: TK-10
[19] = test system: UACC-62
[20] = test system: SK-MEL-2

Row | SMILES | GI50 [1] | GI50 [2] | GI50 [3] | GI50 [4] | GI50 [5] | GI50 [6] | GI50 [7] | GI50 [8] | GI50 [9] | GI50 [10] | GI50 [11] | GI50 [12] | GI50 [13] | GI50 [14] | GI50 [15] | GI50 [16] | GI50 [17] | GI50 [18] | GI50 [19] | GI50 [20]
1 | C/C(=C/CNc1ncnc2c1ncn2CCC#N)CO | > 100 µM (inactive) | > 100 µM (inactive) | > 100 µM (inactive) | > 100 µM (inactive) | > 100 µM (inactive) | > 100 µM (inactive) | > 100 µM (inactive) | > 100 µM (inactive) | > 100 µM (inactive) | > 100 µM (inactive) | > 100 µM (inactive) | > 100 µM (inactive) | > 100 µM (inactive) | > 100 µM (inactive) | > 100 µM (inactive) | > 100 µM (inactive) | > 100 µM (inactive) | > 100 µM (inactive) | > 100 µM (inactive) | –
2 | Cn1/c(=N\S(=O)(=O)c2ccccc2)[nH]c2ccccc21 | > 100 µM (inactive) | > 100 µM (inactive) | > 100 µM (inactive) | > 100 µM (inactive) | > 100 µM (inactive) | > 100 µM (inactive) | – | > 100 µM (inactive) | > 100 µM (inactive) | > 100 µM (inactive) | > 100 µM (inactive) | > 100 µM (inactive) | > 100 µM (inactive) | 91.8 µM (inactive) | 58.6 µM (inactive) | > 100 µM (inactive) | > 100 µM (inactive) | > 100 µM (inactive) | > 100 µM (inactive) | –
3 | O=C(O)c1ccc(C(O)(c2ccccc2)c2ccccc2)cc1 | > 100 µM (inactive) | > 100 µM (inactive) | > 100 µM (inactive) | > 100 µM (inactive) | > 100 µM (inactive) | > 100 µM (inactive) | > 100 µM (inactive) | > 100 µM (inactive) | > 100 µM (inactive) | > 100 µM (inactive) | > 100 µM (inactive) | – | > 100 µM (inactive) | > 100 µM (inactive) | > 100 µM (inactive) | > 100 µM (inactive) | > 100 µM (inactive) | > 100 µM (inactive) | > 100 µM (inactive) | –
4 | CSC1=C(C#N)C(=O)N(c2ccc(C)cc2)C(=O)C1C#N (stereo unspecified) | > 100 µM (inactive) | > 100 µM (inactive) | > 100 µM (inactive) | > 100 µM (inactive) | > 100 µM (inactive) | > 100 µM (inactive) | > 100 µM (inactive) | > 100 µM (inactive) | > 100 µM (inactive) | > 100 µM (inactive) | > 100 µM (inactive) | > 100 µM (inactive) | 29.7 µM (inactive) | – | > 100 µM (inactive) | > 100 µM (inactive) | > 100 µM (inactive) | > 100 µM (inactive) | > 100 µM (inactive) | > 100 µM (inactive)
5 | COC1/C=C/C(C)C(C(C)C(OC)C(C)CCC(=O)C(C)C(CC(=O)O)OC)OC(=O)/C=C/C=C(\C)CC(OC)C(OC)C2=CC(=O)O[C@@H](C(C)C(OC)CC(OC)/C=C/C(C)C(O)C1)[C@H]2O (stereo partly specified) | 0.0223 µM (active) | 0.0473 µM (active) | 0.0484 µM (active) | 0.053 µM (active) | 0.0237 µM (active) | 0.0129 µM (active) | 0.0188 µM (active) | 0.0286 µM (active) | 0.0715 µM (active) | 0.0785 µM (active) | – | 0.0336 µM (active) | – | 0.149 µM (active) | 0.046 µM (active) | 0.0968 µM (active) | 0.0536 µM (active) | 0.0703 µM (active) | 0.0479 µM (active) | 0.198 µM (active)
6 | CCNC(=O)Nc1ccccn1 | > 100 µM (inactive) | > 100 µM (inactive) | > 100 µM (inactive) | > 100 µM (inactive) | > 100 µM (inactive) | > 100 µM (inactive) | – | > 100 µM (inactive) | > 100 µM (inactive) | > 100 µM (inactive) | > 100 µM (inactive) | > 100 µM (inactive) | > 100 µM (inactive) | – | > 100 µM (inactive) | > 100 µM (inactive) | > 100 µM (inactive) | > 100 µM (inactive) | > 100 µM (inactive) | –
7 | C=C[C@@]1(C)CC2CC[C@]3(C)C(C)=CC(=O)CC3[C@]2(C)CC1O (stereo partly specified) | > 100 µM (inactive) | > 100 µM (inactive) | 38.3 µM (inactive) | > 100 µM (inactive) | 32.7 µM (inactive) | > 100 µM (inactive) | > 100 µM (inactive) | > 100 µM (inactive) | > 100 µM (inactive) | – | > 100 µM (inactive) | > 100 µM (inactive) | 32.7 µM (inactive) | > 100 µM (inactive) | > 100 µM (inactive) | > 100 µM (inactive) | > 100 µM (inactive) | > 100 µM (inactive) | > 100 µM (inactive) | > 100 µM (inactive)
8 | NC1=NC(=O)/C(=C2\CCNC(=O)c3[nH]c(Br)cc32)N1 [HYMENIALDISINE] | 27.5 µM (inactive) | 45.3 µM (inactive) | 2.43 µM (inactive) and 2.9 µM (inactive) | 39.6 µM (inactive) | 1.6 µM (inactive) and 1.66 µM (inactive) | – | 4.89 µM (inactive) and 4.57 µM (inactive) | 9.89 µM (inactive) | 40.9 µM (inactive) and 80.7 µM (inactive) | 1.9 µM (inactive) | – | – | – | – | 8.93 µM (inactive) and 5.09 µM (inactive) | > 100 µM (inactive) | – | 9.12 µM (inactive) | 13.4 µM (inactive) and 9.62 µM (inactive) | –
